# Laboratory results as given in patent US9586956B2, “Isoquinoline and naphthyridine derivatives” (Genentech, Inc., priority 2012, dated 2017).
# Target: T1, purified human MAP4K4 kinase domain (Homo sapiens, UniProt O95819)
# T1 construct: purified human MAP4K4 kinase domain
# Assay: MAP4K4 Inhibition Assay Protocol No. 2 (Z'-LYTE FRET)
# Type: biochemical
# Settings: Assay 2; 1 nM enzyme, 10 uM ATP, 60 min
# From the text: The kinase activity of purified human MAP4K4 kinase domain was monitored using Z'-LYTE™ technology from Invitrogen to determine inhibition constants (IC50) of small molecule inhibitors. The Z'-LYTE™ biochemical assay employs a fluorescence-based, coupled-enzyme format and is based on the differential sensitivity of phosphorylated and non-phosphorylated peptides to proteolytic cleavage. In the primary reaction, the kinase transfers the gamma-phosphate of ATP to a single tyrosine, serine or threonine residue in a synthetic FRET-peptide. In the secondary reaction, a site-specific protease recognizes and cleaves non-phosphorylated FRET-peptides. Phosphorylation of FRET-peptides suppresses cleavage by the Development Reagent. Cleavage disrupts FRET between the donor (i.e., coumarin) and acceptor (i.e., fluorescein) fluorophores on the FRET-peptide, whereas uncleaved, phosphorylated FRET-peptides maintain FRET. To determine inhibition constants (IC50), compounds were serially diluted in DMSO and added to 10 uL kinase reactions containing 1 nM purified MAP4K4 enzyme, 2 uM ser/thr7 Z'-LYTE™ substrate, 10 uMATP, 50 mM Hepes (pH 7.5), 10 mM MgCl2, 1 mM EGTA, 0.01% Brij-35, and 2% DMSO. Reactions were incubated at room temperature in Corning Black 384 well plates (Corning#3573) for 60 minutes and stopped by the addition of 5 uL of Z'-LYTE™ development reagent A and incubated at room temp for 60 minutes. The plate is then analyzed on Perkin Elmer Envision by FRET mode. The high ratio of coumarin/fluorescein represents 0% phosphorylation rate while low ratio of coumarin/fluorescein represents 100% phosphorylation rate. The following equations are used to determine extent of peptide phosphorylation or inhibition: […]
# T1 sequence (O95819 25-289 limits assumed): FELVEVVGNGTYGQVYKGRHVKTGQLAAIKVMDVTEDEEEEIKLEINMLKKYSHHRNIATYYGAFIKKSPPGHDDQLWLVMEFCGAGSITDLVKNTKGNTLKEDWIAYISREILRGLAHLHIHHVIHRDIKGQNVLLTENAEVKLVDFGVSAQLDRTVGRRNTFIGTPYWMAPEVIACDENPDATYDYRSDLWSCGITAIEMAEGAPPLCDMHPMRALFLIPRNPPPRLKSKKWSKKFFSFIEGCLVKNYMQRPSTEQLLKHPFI
row,IC50 [µM],Compound
1,0.0294,"Nc1ncc(CNC(=O)C2CC2)c2ccc(-c3cccc(F)c3)cc12 [Example 6, N-[[1-amino-7-(3-fluorophenyl)-4-isoquinolyl]methyl]cyclopropanecarboxamide]"
2,0.776,"CN1CC(NC(=O)c2cnc(N)c3cc(-c4cccc(F)c4)ccc23)C1 [Example 7, 1-amino-7-(3-fluorophenyl)-N-(1-methylazetidin-3-yl)isoquinoline-4-carboxamide]"
3,0.0044,"Nc1ncc(C(=O)N[C@H]2C[C@H](O)C2)c2ccc(-c3cccc(F)c3)nc12 [Example 14b, 8-amino-2-(3-fluorophenyl)-N-(trans-3-hydroxycyclobutyl)-1,7-naphthyridine-5-carboxamide]"
4,0.00563,"CC(C)CNC(=O)c1cnc(N)c2nc(-c3cccc(F)c3)ccc12 [Example 40, 8-amino-2-(3-fluorophenyl)-N-isobutyl-1,7-naphthyridine-5-carboxamide]"
5,1.2,"CN(C(=O)c1cnc(N)c2nc(-c3cccc(F)c3)ccc12)C1CN(C(=O)C2CC2)C1 [Example 41, 8-amino-N-(1-(cyclopropanecarbonyl)azetidin-3-yl)-2-(3-fluorophenyl)-N-methyl-1,7-naphthyridine-5-carboxamide]"
6,0.00832,"Nc1ncc(-c2ncn[nH]2)c2ccc(-c3cccc(F)c3)nc12 [Example 42, 2-(3-fluorophenyl)-5-(1H-1,2,4-triazol-5-yl)-1,7-naphthyridin-8-amine]"
7,0.00248,"Nc1ncc(-c2cn(CCN3CCOCC3)cn2)c2ccc(-c3cccc(F)c3)nc12 [Example 43, 2-(3-fluorophenyl)-5-(1-(2-morpholinoethyl)-1H-imidazol-4-yl)-1,7-naphthyridin-8-amine]"
8,0.00263,"Nc1ncc(C(=O)NC2CN(C(=O)C3CC3)C2)c2ccc(-c3ccnc(F)c3)nc12 [Example 44, 8-amino-N-(1-(cyclopropanecarbonyl)azetidin-3-yl)-2-(2-fluoropyridin-4-yl)-1,7-naphthyridine-5-Carboxamide]"
9,0.000648,"CCOC(=O)c1cnc(N)c2nc(-c3cccc(F)c3)ccc12 [Example 118, ethyl 8-amino-2-(3-fluorophenyl)-1,7-naphthyridine-5-carboxylate]"
10,0.756,"CCN1CC(NC(=O)c2cnc(N)c3cc(-c4cccc(F)c4)ccc23)C1 [Example 127, 1-amino-N-(1-ethylazetidin-3-yl)-7-(3-fluorophenyl) isoquinoline-4-carboxamide]"
11,0.155,"Nc1ncc(CNS(=O)(=O)C2CC2)c2ccc(-c3cccc(F)c3)cc12 [Example 134, N-[[1-amino-7-(3-fluoro-phenyl)-4-isoquinolyl]methyl] cyclopropanesulfonamide]"
12,0.162,"CNC(=O)N1CCC(NC(=O)c2cnc(N)c3cc(-c4cccc(F)c4)ccc23)C1 (stereo not shown) [Example 135, 1-amino-7-(3-fluorophenyl)-N-[1-(methylcarbamoyl)pyrrolidin-3-yl] isoquinoline-4-carboxamide]"
13,0.919,"Nc1ncc(CNC(=O)c2ccccc2)c2ccc(-c3cccc(F)c3)cc12 [Example 136, N-[[1-amino-7-(3-fluoro-phenyl)-4-isoquinolyl]methyl]benzamide]"
14,0.0106,"Nc1ncc(-c2cc(CO)ccn2)c2ccc(-c3cccc(F)c3)cc12 [Example 137, [2-[1-amino-7-(3-fluoro-phenyl)-4-isoquinolyl]-4-pyridyl]methanol]"
15,0.0145,"Cn1ccc(-c2cnc(N)c3cc(-c4cccc(F)c4)ccc23)n1 [Example 138, 7-(3-fluorophenyl)-4-(1-methylpyrazol-3-yl) isoquinolin-1-amine]"
16,0.00216,"CCOC(=O)c1cnc(N)c2nc(-c3cccc(OC(F)(F)F)c3)ccc12 [Example 139, ethyl 8-amino-2-[3-(trifluoro-methoxy)phenyl]-1,7-naphthyridine-5-carboxylate]"
17,0.00769,"CCOC(=O)c1cnc(N)c2nc(-c3cccc(OC(F)F)c3)ccc12 [Example 140, ethyl 8-amino-2-[3-(difluoro-methoxy)phenyl]-1,7-naphthyridine-5-carboxylate]"
18,0.00339,"CCOC(=O)c1cnc(N)c2nc(-c3ccnc(C)c3)ccc12 [Example 141, ethyl 8-amino-2-(2-methyl-4-pyridyl)-1,7-naphthyridine-5-carboxylate]"
19,0.48,"CCOC(=O)c1cnc(N)c2nc(-c3cccc(S(=O)(=O)N(C)C)c3)ccc12 [Example 142, ethyl 8-amino-2-[3-(dimethyl-sulfamoyl)phenyl]-1,7-naphthyridine-5-carboxylate]"
20,0.0636,"CCOC(=O)c1cnc(N)c2nc(-c3cccc(S(C)(=O)=O)c3)ccc12 [Example 143, ethyl 8-amino-2-(3-methyl-sulfonylphenyl)-1,7-naphthyridine-5-carboxylate]"
21,0.0031,"CCOC(=O)c1cnc(N)c2nc(-c3cccc(C(=O)N(C)C)c3)ccc12 [Example 144, ethyl 8-amino-2-[3-(dimethyl-carbamoyl)phenyl]-1,7-naphthyridine-5-carboxylate]"
22,0.00184,"CCOC(=O)c1cnc(N)c2nc(-c3cc(F)cc(F)c3)ccc12 [Example 145, ethyl 8-amino-2-(3,5-difluoro-phenyl)-1,7-naphthyridine-5-carboxylate]"
23,0.0326,"CCOC(=O)c1cnc(N)c2nc(-c3cccc(OC(C)C)c3)ccc12 [Example 146, ethyl 8-amino-2-(3-isopropoxy-phenyl)-1,7-naphthyridine-5-carboxylate]"
24,0.00145,"CCOC(=O)c1cnc(N)c2nc(-c3cccc(C#N)c3)ccc12 [Example 147, ethyl 8-amino-2-(3-cyanophenyl)-1,7-naphthyridine-5-carboxylate]"
25,0.00853,"CCOC(=O)c1cnc(N)c2nc(-c3cccc(OC)c3)ccc12 [Example 148, ethyl 8-amino-2-(3-methoxy-phenyl)-1,7-naphthyridine-5-carboxylate]"
26,0.0278,"CCOC(=O)c1cnc(N)c2nc(-c3ccc(Cl)cc3)ccc12 [Example 149, ethyl 8-amino-2-(4-chlorophenyl)-1,7-naphthyridine-5-carboxylate]"
27,0.0212,"CCOC(=O)c1cnc(N)c2nc(-c3ccc(OC)cc3)ccc12 [Example 150, ethyl 8-amino-2-(4-methoxy-phenyl)-1,7-naphthyridine-5-carboxylate]"
28,0.00652,"CCOC(=O)c1cnc(N)c2nc(-c3ccc(F)cc3C)ccc12 [Example 153, ethyl 8-amino-2-(4-fluoro-2-methyl-phenyl)-1,7-naphthyridine-5-carboxylate]"
29,0.382,"CCOC(=O)c1cnc(N)c2nc(-c3ccc(Cl)cc3Cl)ccc12 [Example 154, ethyl 8-amino-2-(2,4-dichloro-phenyl)-1,7-naphthyridine-5-carboxylate]"
30,0.134,"CCOC(=O)c1cnc(N)c2nc(-c3ccc(OC)cc3Cl)ccc12 [Example 155, ethyl 8-amino-2-(2-chloro-4-methoxy-phenyl)-1,7-naphthyridine-5-carboxylate]"

row,Compound,IC50 [µM]
1,"CNC(=O)N1CC(NC(=O)c2cnc(N)c3cc(-c4cccc(F)c4)ccc23)C1 [Example 8, 1-amino-7-(3-fluorophenyl)-N-[1-(methylcarbamoyl)azetidin-3-yl]isoquinoline-4-carboxamide]",0.015

# Target: T1, purified human MAP4K4 kinase domain
# Assay: MAP4K4 Inhibition Assay Protocol No. 1 (Caliper LabChip, moesin-derived peptide phosphorylation)
# Type: biochemical
# Settings: Assay 1; 1 nM enzyme, 10 uM ATP, 45 min
# How it was run: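 1 nM enzyme with 1 uM 5-carboxyfluorescein-labelled moesin peptide and 10 uM ATP in 50 mM Hepes pH 7.2, 10 mM MgCl2, 2% DMSO, 45 min at room temperature, then EDTA stop. Phosphorylated fraction of peptide measured by microfluidic mobility shift; IC50 from four-parameter fit.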
row,IC50 [µM],Compound
1,0.0414,"Nc1ncc(CNC(=O)C2CC2)c2ccc(-c3cccc(F)c3)cc12 [Example 6, N-[[1-amino-7-(3-fluorophenyl)-4-isoquinolyl]methyl]cyclopropanecarboxamide]"
2,0.869,"CN1CC(NC(=O)c2cnc(N)c3cc(-c4cccc(F)c4)ccc23)C1 [Example 7, 1-amino-7-(3-fluorophenyl)-N-(1-methylazetidin-3-yl)isoquinoline-4-carboxamide]"
3,0.00419,"Nc1ncc(C(=O)N[C@H]2C[C@H](O)C2)c2ccc(-c3cccc(F)c3)nc12 [Example 14b, 8-amino-2-(3-fluorophenyl)-N-(trans-3-hydroxycyclobutyl)-1,7-naphthyridine-5-carboxamide]"
4,0.000464,"CCOC(=O)c1cnc(N)c2nc(-c3cccc(F)c3)ccc12 [Example 118, ethyl 8-amino-2-(3-fluorophenyl)-1,7-naphthyridine-5-carboxylate]"
5,1.2,"CCN1CC(NC(=O)c2cnc(N)c3cc(-c4cccc(F)c4)ccc23)C1 [Example 127, 1-amino-N-(1-ethylazetidin-3-yl)-7-(3-fluorophenyl) isoquinoline-4-carboxamide]"

row,Compound,IC50 [µM]
1,"CNC(=O)N1CC(NC(=O)c2cnc(N)c3cc(-c4cccc(F)c4)ccc23)C1 [Example 8, 1-amino-7-(3-fluorophenyl)-N-[1-(methylcarbamoyl)azetidin-3-yl]isoquinoline-4-carboxamide]",0.0112
